Source: ChEMBL document CHEMBL1123843, “Anticoagulant peptides: nature of the interaction of the C-terminal region of hirudin with a noncatalytic binding site on thrombin” (J Med Chem, 1987)
pIC50: −log10 of the molar value. Square brackets hold non-standard residues; d marks the D form. Peptide text beside a SMILES is read from it. sY = N[C@@H](Cc1ccc(OS(=O)(=O)O)cc1)C(=O)O; Sar = CNCC(=O)O

Experiments:
Prothrombin = Prothrombin (Bos taurus, UniProt P00735); assay: Inhibition of plasma fibrin clot formation by thrombin in vitro.; format: functional, cell-free
Prothrombin (Bos taurus) = Prothrombin (Bos taurus) (UniProt P00735); assay: Relative potency for fibrin clot inhibition compared to hirudin55-65.; format: functional; design: unit not given here

CC[C@H](C)[C@H](NC(=O)[C@H](CCC(=O)O)NC(=O)[C@H](CCC(=O)O)NC(=O)[C@H](Cc1ccccc1)NC(=O)[C@H](CC(=O)O)NC(=O)CNC(=O)[C@H](CC(=O)O)NC(=O)[C@H](CC(N)=O)NC(=O)[C@H](Cc1cnc[nH]1)NC(=O)[C@H](CO)NC(=O)[C@H](CCC(N)=O)NC(=O)[C@@H]1CCCN1C(=O)[C@H](CCCCN)NC(=O)[C@@H]1CCCN1C(=O)[C@@H](NC(C)=O)[C@@H](C)O)C(=O)N1CCC[C@H]1C(=O)N[C@@H](CCC(=O)O)C(=O)N[C@@H](CCC(=O)O)C(=O)N[C@@H](Cc1ccc(OS(=O)(=O)O)cc1)C(=O)N[C@@H](CC(C)C)C(=O)N[C@@H](CCC(N)=O)C(=O)O
pIC50 (Prothrombin): 5.80

CC[C@H](C)[C@H](NC(=O)[C@H](CCC(=O)O)NC(=O)[C@H](CCC(=O)O)NC(=O)[C@H](Cc1ccccc1)NC(=O)[C@H](CC(=O)O)NC(=O)CN)C(=O)N[C@H](C)C(=O)N[C@@H](CCC(=O)O)C(=O)N[C@@H](CCC(=O)O)C(=O)N[C@@H](Cc1ccc(OS(=O)(=O)O)cc1)C(=O)N[C@@H](CC(C)C)C(=O)N[C@@H](CCC(N)=O)C(=O)O
pIC50 (Prothrombin): 4.57 | Relative potency (Prothrombin (Bos taurus)): 26

CC[C@H](C)[C@H](NC(=O)[C@H](CCC(=O)O)NC(=O)[C@H](CCC(=O)O)NC(=O)[C@H](CCC(=O)O)NC(=O)[C@@H](N)CC(=O)O)C(=O)N1CCC[C@H]1C(=O)N[C@@H](CCC(=O)O)C(=O)N[C@@H](CCC(=O)O)C(=O)N[C@@H](Cc1ccc(OS(=O)(=O)O)cc1)C(=O)N[C@@H](CC(C)C)C(=O)N[C@@H](CCC(N)=O)C(=O)O (H-DEEEIPEE[sY]LQ-OH)
pIC50 (Prothrombin): < 3.70 | Relative potency (Prothrombin (Bos taurus)): < 2

CC[C@H](C)[C@H](NC(=O)[C@H](CCC(=O)O)NC(=O)[C@H](C)NC(=O)[C@H](Cc1ccccc1)NC(=O)[C@@H](N)CC(=O)O)C(=O)N1CCC[C@H]1C(=O)N[C@@H](CCC(=O)O)C(=O)N[C@@H](CCC(=O)O)C(=O)N[C@@H](Cc1ccc(OS(=O)(=O)O)cc1)C(=O)N[C@@H](CC(C)C)C(=O)N[C@@H](CCC(N)=O)C(=O)O (H-DFAEIPEE[sY]LQ-OH)
pIC50 (Prothrombin): < 3.70 | Relative potency (Prothrombin (Bos taurus)): < 3

CC[C@H](C)[C@H](NC(=O)[C@H](C)NC(=O)[C@H](CCC(=O)O)NC(=O)[C@H](Cc1ccccc1)NC(=O)[C@@H](N)CC(=O)O)C(=O)N1CCC[C@H]1C(=O)N[C@@H](CCC(=O)O)C(=O)N[C@@H](CCC(=O)O)C(=O)N[C@@H](Cc1ccc(OS(=O)(=O)O)cc1)C(=O)N[C@@H](CC(C)C)C(=O)N[C@@H](CCC(N)=O)C(=O)O (H-DFEAIPEE[sY]LQ-OH)
pIC50 (Prothrombin): 4.88 | Relative potency (Prothrombin (Bos taurus)): 53

CC(C)C[C@H](NC(=O)[C@H](Cc1ccc(OS(=O)(=O)O)cc1)NC(=O)[C@H](CCC(=O)O)NC(=O)[C@H](CCC(=O)O)NC(=O)[C@@H]1CCCN1C(=O)[C@H](C)NC(=O)[C@H](CCC(=O)O)NC(=O)[C@H](CCC(=O)O)NC(=O)[C@H](Cc1ccccc1)NC(=O)[C@@H](N)CC(=O)O)C(=O)N[C@@H](CCC(N)=O)C(=O)O (H-DFEEAPEE[sY]LQ-OH)
pIC50 (Prothrombin): < 3.70 | Relative potency (Prothrombin (Bos taurus)): < 3

CC[C@H](C)[C@H](NC(=O)[C@H](CCC(=O)O)NC(=O)[C@H](CCC(=O)O)NC(=O)[C@H](Cc1ccccc1)NC(=O)[C@@H](N)CC(=O)O)C(=O)N[C@@H](C)C(=O)N[C@@H](CCC(=O)O)C(=O)N[C@@H](CCC(=O)O)C(=O)N[C@@H](Cc1ccc(OS(=O)(=O)O)cc1)C(=O)N[C@@H](CC(C)C)C(=O)N[C@@H](CCC(N)=O)C(=O)O (H-DFEEIAEE[sY]LQ-OH)
pIC50 (Prothrombin): < 3.70 | Relative potency (Prothrombin (Bos taurus)): < 3

CC[C@H](C)[C@H](NC(=O)[C@H](CCC(=O)O)NC(=O)[C@H](CCC(=O)O)NC(=O)[C@H](Cc1ccccc1)NC(=O)[C@@H](N)CC(=O)O)C(=O)N1CCC[C@H]1C(=O)N[C@@H](C)C(=O)N[C@@H](CCC(=O)O)C(=O)N[C@@H](Cc1ccc(OS(=O)(=O)O)cc1)C(=O)N[C@@H](CC(C)C)C(=O)N[C@@H](CCC(N)=O)C(=O)O (H-DFEEIPAE[sY]LQ-OH)
pIC50 (Prothrombin): 4.73 | Relative potency (Prothrombin (Bos taurus)): 38

CC[C@H](C)[C@H](NC(=O)[C@H](CCC(=O)O)NC(=O)[C@H](CCC(=O)O)NC(=O)[C@H](Cc1ccccc1)NC(=O)[C@@H](N)CC(=O)O)C(=O)N1CCC[C@H]1C(=O)N[C@@H](CCC(=O)O)C(=O)N[C@@H](C)C(=O)N[C@@H](Cc1ccc(OS(=O)(=O)O)cc1)C(=O)N[C@@H](CC(C)C)C(=O)N[C@@H](CCC(N)=O)C(=O)O (H-DFEEIPEA[sY]LQ-OH)
pIC50 (Prothrombin): 4.37 | Relative potency (Prothrombin (Bos taurus)): 17

CC[C@H](C)[C@H](NC(=O)[C@H](CCC(=O)O)NC(=O)[C@H](CCC(=O)O)NC(=O)[C@H](Cc1ccccc1)NC(=O)[C@@H](N)CC(=O)O)C(=O)N1CCC[C@H]1C(=O)N[C@@H](CCC(=O)O)C(=O)N[C@@H](CCC(=O)O)C(=O)N[C@@H](C)C(=O)N[C@@H](CC(C)C)C(=O)N[C@@H](CCC(N)=O)C(=O)O (H-DFEEIPEEALQ-OH)
pIC50 (Prothrombin): 4.87 | Relative potency (Prothrombin (Bos taurus)): 52

CC[C@H](C)[C@H](NC(=O)[C@H](CCC(=O)O)NC(=O)[C@H](CCC(=O)O)NC(=O)[C@H](Cc1ccccc1)NC(=O)[C@@H](N)CC(=O)O)C(=O)N1CCC[C@H]1C(=O)N[C@@H](CCC(=O)O)C(=O)N[C@@H](CCC(=O)O)C(=O)N[C@@H](CCC(=O)O)C(=O)N[C@@H](CC(C)C)C(=O)N[C@@H](C)C(=O)O (H-DFEEIPEEELA-OH)
pIC50 (Prothrombin): 4.23 | Relative potency (Prothrombin (Bos taurus)): 12

CC[C@H](C)[C@H](NC(=O)[C@H](CCC(=O)O)NC(=O)[C@H](CCC(=O)O)NC(=O)[C@H](Cc1ccccc1)NC(=O)[C@@H](N)CC(=O)O)C(=O)N1CCC[C@H]1C(=O)N[C@@H](CCC(=O)O)C(=O)N[C@@H](CCC(=O)O)C(=O)N[C@@H](Cc1ccc(OS(=O)(=O)O)cc1)C(=O)N[C@@H](C)C(=O)N[C@@H](CCC(N)=O)C(=O)O (H-DFEEIPEE[sY]AQ-OH)
pIC50 (Prothrombin): < 3.70 | Relative potency (Prothrombin (Bos taurus)): < 3

CC[C@H](C)[C@H](NC(=O)[C@H](CCC(=O)O)NC(=O)[C@H](CCC(=O)O)NC(=O)[C@H](CC(C)C)NC(=O)[C@@H](N)CC(=O)O)C(=O)N1CCC[C@H]1C(=O)N[C@@H](CCC(=O)O)C(=O)N[C@@H](CCC(=O)O)C(=O)N[C@@H](Cc1ccc(OS(=O)(=O)O)cc1)C(=O)N[C@@H](CC(C)C)C(=O)N[C@@H](CCC(N)=O)C(=O)O (H-DLEEIPEE[sY]LQ-OH)
pIC50 (Prothrombin): < 3.70 | Relative potency (Prothrombin (Bos taurus)): < 2

CC[C@H](C)[C@H](NC(=O)[C@H](CCC(=O)O)NC(=O)[C@H](CCC(=O)O)NC(=O)[C@H](Cc1ccccc1)NC(=O)[C@H](CC(=O)O)NC(=O)CN)C(=O)N(C)CC(=O)N[C@@H](CCC(=O)O)C(=O)N[C@@H](CCC(=O)O)C(=O)N[C@@H](Cc1ccc(OS(=O)(=O)O)cc1)C(=O)N[C@@H](CC(C)C)C(=O)N[C@@H](CCC(N)=O)C(=O)O (H-GDFEEI[Sar]EE[sY]LQ-OH)
pIC50 (Prothrombin): 4.76 | Relative potency (Prothrombin (Bos taurus)): 41

CC(C)C[C@H](NC(=O)[C@H](Cc1ccc(OS(=O)(=O)O)cc1)NC(=O)[C@H](CCC(=O)O)NC(=O)[C@H](CCC(=O)O)NC(=O)[C@@H]1CCCN1C(=O)[C@H](CC(C)C)NC(=O)[C@H](CCC(=O)O)NC(=O)[C@H](CCC(=O)O)NC(=O)[C@H](Cc1ccccc1)NC(=O)[C@H](CC(=O)O)NC(=O)CN)C(=O)N[C@@H](CCC(N)=O)C(=O)O (H-GDFEELPEE[sY]LQ-OH)
pIC50 (Prothrombin): 5.08 | Relative potency (Prothrombin (Bos taurus)): 86

CC[C@H](C)[C@H](NC(=O)[C@H](CCC(=O)O)NC(=O)[C@H](CCC(=O)O)NC(=O)[C@H](Cc1ccc(O)cc1)NC(=O)[C@H](CC(=O)O)NC(=O)CN)C(=O)N1CCC[C@H]1C(=O)N[C@@H](CCC(=O)O)C(=O)N[C@@H](CCC(=O)O)C(=O)N[C@@H](Cc1ccc(OS(=O)(=O)O)cc1)C(=O)N[C@@H](CC(C)C)C(=O)N[C@@H](CCC(N)=O)C(=O)O (H-GDYEEIPEE[sY]LQ-OH)
pIC50 (Prothrombin): 5.48 | Relative potency (Prothrombin (Bos taurus)): 215

CC(C)CC(NC(=O)[C@H](Cc1ccc(OS(=O)(=O)O)cc1)NC(=O)[C@H](CCC(=O)O)NC(=O)[C@H](CCC(=O)O)NC(=O)[C@@H]1CCCN1C(=O)C(CC(C)C)NC(=O)[C@H](CCC(=O)O)NC(=O)[C@H](CCC(=O)O)NC(=O)[C@H](Cc1ccccc1)NC(=O)[C@@H](N)CC(=O)O)C(=O)N[C@@H](C)C(=O)O (stereo in doubt)
pIC50 (Prothrombin): < 3.70 | Relative potency (Prothrombin (Bos taurus)): < 3
